From PubChem BioAssay AID1259407 (Chemical Carcinogenesis Research Information System (CCRIS), 2018) come the findings set out here.

The subject of the data set is CCRIS mutagenicity, Ames/micronucleus/aberration tests. Put plainly: CCRIS mutagenicity studies.
Where [1] appears, read: Test System: AMES SALMONELLA TYPHIMURIUM, Strain/Indicator: TA97, Metabolic Activation: HAMSTER, LIVER, S-9, AROCLOR 1254 (30%), Method: PREINCUBATION
[2] abbreviates: Test System: AMES SALMONELLA TYPHIMURIUM, Strain/Indicator: TA97, Metabolic Activation: NONE, Method: PREINCUBATION
The mark [3] stands for this setting: Test System: AMES SALMONELLA TYPHIMURIUM, Strain/Indicator: TA97, Metabolic Activation: RAT, LIVER, S-9, AROCLOR 1254 (30%), Method: PREINCUBATION
[4] abbreviates: Test System: AMES SALMONELLA TYPHIMURIUM, Strain/Indicator: TA98, Metabolic Activation: HAMSTER, LIVER, S-9, AROCLOR 1254 (10%), Method: PREINCUBATION
The mark [5] stands for this setting: Test System: AMES SALMONELLA TYPHIMURIUM, Strain/Indicator: TA98, Metabolic Activation: HAMSTER, LIVER, S-9, AROCLOR 1254 (30%), Method: PREINCUBATION
Setting [6] is: Test System: AMES SALMONELLA TYPHIMURIUM, Strain/Indicator: TA98, Metabolic Activation: NONE, Method: PREINCUBATION
Where [7] appears, read: Test System: AMES SALMONELLA TYPHIMURIUM, Strain/Indicator: TA98, Metabolic Activation: RAT, LIVER, S-9, AROCLOR 1254 (10%), Method: PREINCUBATION
Where [8] appears, read: Test System: AMES SALMONELLA TYPHIMURIUM, Strain/Indicator: TA98, Metabolic Activation: RAT, LIVER, S-9, AROCLOR 1254 (30%), Method: PREINCUBATION
The mark [9] stands for this setting: Test System: AMES SALMONELLA TYPHIMURIUM, Strain/Indicator: TA100, Metabolic Activation: HAMSTER, LIVER, S-9, AROCLOR 1254 (10%), Method: PREINCUBATION
Setting [10] is: Test System: AMES SALMONELLA TYPHIMURIUM, Strain/Indicator: TA100, Metabolic Activation: HAMSTER, LIVER, S-9, AROCLOR 1254 (30%), Method: PREINCUBATION
Setting [11] is: Test System: AMES SALMONELLA TYPHIMURIUM, Strain/Indicator: TA100, Metabolic Activation: NONE, Method: PREINCUBATION
[12] abbreviates: Test System: AMES SALMONELLA TYPHIMURIUM, Strain/Indicator: TA100, Metabolic Activation: RAT, LIVER, S-9, AROCLOR 1254 (10%), Method: PREINCUBATION
Where [13] appears, read: Test System: AMES SALMONELLA TYPHIMURIUM, Strain/Indicator: TA100, Metabolic Activation: RAT, LIVER, S-9, AROCLOR 1254 (30%), Method: PREINCUBATION
Setting [14] is: Test System: AMES SALMONELLA TYPHIMURIUM, Strain/Indicator: TA1535, Metabolic Activation: HAMSTER, LIVER, S-9, AROCLOR 1254 (10%), Method: PREINCUBATION
Where [15] appears, read: Test System: AMES SALMONELLA TYPHIMURIUM, Strain/Indicator: TA1535, Metabolic Activation: HAMSTER, LIVER, S-9, AROCLOR 1254 (30%), Method: PREINCUBATION
The mark [16] stands for this setting: Test System: AMES SALMONELLA TYPHIMURIUM, Strain/Indicator: TA1535, Metabolic Activation: NONE, Method: PREINCUBATION
[17] abbreviates: Test System: AMES SALMONELLA TYPHIMURIUM, Strain/Indicator: TA1535, Metabolic Activation: RAT, LIVER, S-9, AROCLOR 1254 (10%), Method: PREINCUBATION
Where [18] appears, read: Test System: AMES SALMONELLA TYPHIMURIUM, Strain/Indicator: TA1537, Metabolic Activation: HAMSTER, LIVER, S-9, AROCLOR 1254 (30%), Method: PREINCUBATION
Setting [19] is: Test System: AMES SALMONELLA TYPHIMURIUM, Strain/Indicator: TA1537, Metabolic Activation: NONE, Method: PREINCUBATION
Where [20] appears, read: Test System: AMES SALMONELLA TYPHIMURIUM, Strain/Indicator: TA1537, Metabolic Activation: RAT, LIVER, S-9, AROCLOR 1254 (30%), Method: PREINCUBATION

Molecules are shown by their SMILES. Activity calls are given as the source filed them. No rule for the calls is given here.

In the case of `CC(CCl)OP(=O)(OC(C)CCl)OC(C)CCl` (centres undefined), the mutagenic call by setting is: (Test System: AMES SALMONELLA TYPHIMURIUM, Strain/Indicator: TA97, Metabolic Activation: HAMSTER, LIVER, S-9, AROCLOR 1254 (10%), Method: PREINCUBATION) “inactive; negative”; under setting [1], “inactive; negative”; under setting [2], “inactive; negative”; (Test System: AMES SALMONELLA TYPHIMURIUM, Strain/Indicator: TA97, Metabolic Activation: RAT, LIVER, S-9, AROCLOR 1254 (10%), Method: PREINCUBATION) “inactive; negative”; under setting [3], “inactive; negative”; under setting [4], “inactive; negative”. Moreover, the mutagenic call was “inactive; negative” under setting [5]; “inactive; negative” under setting [6]; “inactive; negative” under setting [7]; “inactive; negative” under setting [8]; “inactive; negative” under setting [9]; “inactive; negative” under setting [10]. Moreover, the mutagenic call is, setting by setting: under setting [11], “inactive; negative”; under setting [12], “inactive; negative”; under setting [13], “inactive; negative”; under setting [14], “inactive; negative”; under setting [15], “inactive; negative”; under setting [16], “inactive; negative”. Also, the mutagenic call runs as follows: (Test System: AMES SALMONELLA TYPHIMURIUM, Strain/Indicator: TA1535, Metabolic Activation: RAT, LIVER, S-9, AROCLOR 1254 (5 OR 30%), Method: PREINCUBATION) “inactive; negative”; under setting [17], “inactive; negative”; under setting [18], “inactive; negative”; under setting [19], “inactive; negative”; under setting [20], “inactive; negative”.
As to `C=CC(=O)OCC(Br)CBr` (centres undefined), the mutagenic call is, setting by setting: under setting [4], “active; positive”; under setting [6], “inactive; negative”; under setting [7], “inactive; negative”; under setting [9], “active; positive”; under setting [11], “inactive; negative”; under setting [12], “active; positive”. Further, the mutagenic call reads like this: under setting [14], “active; positive”; under setting [16], “active; positive”; under setting [17], “active; positive”; (Test System: AMES SALMONELLA TYPHIMURIUM, Strain/Indicator: TA1537, Metabolic Activation: HAMSTER, LIVER, S-9, AROCLOR 1254 (10%), Method: PREINCUBATION) “inactive; negative”; under setting [19], “inactive; negative”; (Test System: AMES SALMONELLA TYPHIMURIUM, Strain/Indicator: TA1537, Metabolic Activation: RAT, LIVER, S-9, AROCLOR 1254 (10%), Method: PREINCUBATION) “inactive; negative”.
Take `CS(=O)(=O)Nc1ccc(Nc2c3ccccc3nc3cc(N=[N+]=[N-])ccc23)cc1`: under “Test System: AMES SALMONELLA TYPHIMURIUM, Strain/Indicator: TA1537, Metabolic Activation: NONE, Method: STANDARD PLATE”, the mutagenic call was “active; positive”.
Consider `COC[CH2][Hg][Cl]`, for which the mutagenic call under setting [1] was “inactive; negative”; the mutagenic call under setting [2] was “inactive; negative”; the mutagenic call under setting [3] is “inactive; negative”; the mutagenic call under setting [4] is “inactive; negative”; the mutagenic call under setting [5] is “inactive; negative”; the mutagenic call under setting [6] is “inactive; negative”. The mutagenic call by setting is: under setting [7], “inactive; negative”; under setting [8], “inactive; negative”; under setting [9], “inactive; negative”; under setting [10], “inactive; negative”; under setting [11], “inactive; negative”; under setting [12], “inactive; negative”. Further, the mutagenic call runs as follows: under setting [13], “inactive; negative”; under setting [14], “inactive; negative”; under setting [15], “inactive; negative”; under setting [16], “inactive; negative”; under setting [17], “inactive; negative”; (Test System: AMES SALMONELLA TYPHIMURIUM, Strain/Indicator: TA1535, Metabolic Activation: RAT, LIVER, S-9, AROCLOR 1254 (30%), Method: PREINCUBATION) “inactive; negative”. Moreover, the mutagenic call is “inactive; negative” under setting [18], “inactive; negative” under setting [19] and “inactive; negative” under setting [20].
`Cc1ccc(NO)cc1`: the mutagenic call was “inactive; negative” (Test System: AMES SALMONELLA TYPHIMURIUM, Strain/Indicator: TA98, Metabolic Activation: RAT, LIVER, S-9, AROCLOR 1254, Method: PREINCUBATION); “active; positive” under setting [11]; “active; positive” (Test System: AMES SALMONELLA TYPHIMURIUM, Strain/Indicator: TA100, Metabolic Activation: RAT, LIVER, S-9, PCB, Method: PREINCUBATION); “active; positive” (Test System: E. COLI, Strain/Indicator: WP2 UVRA, Metabolic Activation: NONE, Method: FLUCTUATION TEST).
Consider `Nc1ccc2c(c1)-c1ccccc1C2`, for which the mutagenic call (Test System: AMES SALMONELLA TYPHIMURIUM, Strain/Indicator: TA98, Metabolic Activation: RAT, LIVER, S-9, AROCLOR 1254 (2 OR 4%), Method: STANDARD PLATE) was “active; positive”; the mutagenic call (Test System: AMES SALMONELLA TYPHIMURIUM, Strain/Indicator: TA100, Metabolic Activation: RAT, LIVER, S-9, AROCLOR 1254 (4%), Method: STANDARD PLATE) is “active; positive”; the mutagenic call (Test System: AMES SALMONELLA TYPHIMURIUM, Strain/Indicator: TA1535, Metabolic Activation: RAT, LIVER, S-9, AROCLOR 1254 (4%), Method: STANDARD PLATE) is “inactive; negative”; the mutagenic call (Test System: AMES SALMONELLA TYPHIMURIUM, Strain/Indicator: TA1537, Metabolic Activation: RAT, LIVER, S-9, AROCLOR 1254 (4%), Method: STANDARD PLATE) was “active; positive”.
In the case of `N#[N+]c1ccc([O-])cc1`, the mutagenic call was “active; positive” under setting [6]; “active; positive” (Test System: AMES SALMONELLA TYPHIMURIUM, Strain/Indicator: TA98, Metabolic Activation: RAT, LIVER, S-9, POLYCHLORINATED BIPHENYLS, Method: PREINCUBATION); “active; positive” under setting [11]; “active; positive” (Test System: AMES SALMONELLA TYPHIMURIUM, Strain/Indicator: TA100, Metabolic Activation: RAT, LIVER, S-9, POLYCHLORINATED BIPHENYLS, Method: PREINCUBATION).
